Patent US6376508B1, “Treatments for spinal muscular atrophy” (priority 2000, dated 2002)
Entries after “also recorded” stand apart in the source; their conditions may differ.

Key:
[1] = test system: SMA-like mice (hSMN2 Smn-/-); experiment: Treatment of types 2 and 3 SMA-like mice via drinking water; assay type: in vivo, mouse
Excerpt: To generate hSMN2 Smn^−/− mice, hSMN2 Smn^+/− mice were crossed to Smn^+/− mice. Progeny lacking the murine SMN locus were identified by genotyping. The presence of the hSMN2 transgene was also confirmed.
These mice frequently developed chronic necrosis of the tail tip, muscular atrophy, subcutaneous edema in hindlimbs, and paralysis of hindlimbs. Type 3 mice survived and bred normally. The mild symptoms of these mice include short but enlarged tails.
The effect of sodium butyrate on the symptoms of SMA-like mice were investigated. Sodium butyrate was administered to ten SMA-like mice with type 2 symptoms and ten SMA-like mice with type 3 symptoms. These mice were identified at birth by genotype and phenotype. Thereafter, their drinking water was supplemented with a 0.8 μg/ml or an 8 μg/ml solution of sodium butyrate. The drinking water was available ad libitum. The amount of sodium butyrate taken by SMA-like mice was estimated to be approximate 4-80 μg/day. The survival time of sodium butyrate-treated type 2 SMA-like mice was longer, about 4 to 5 days longer on average, than untreated mice.
The effect of sodium butyrate administration on the tail phenotype of SMA-like mice was also monitored. The tails of untreated types 2 and 3 SMA-like mice have decreased diameter of muscle fibers, atrophy of muscle bundles, group atrophy and subcutaneous edema (Hsieh-Li et al. (2000) supra). […] The tail of a treated mouse was about 5 cm long on average, whereas the tail of an untreated mouse was about 1 cm long. Remarkably, the average length of the tail of treated mice, 5 cm, is close to the average length for wild-type mice, 6 cm.

[2] = test system: exon 7 of the SMN2 gene; experiment: RT-PCR analysis of SMN exon 7 expression in EBV transformed lymphoid cell lines of SMA patients; assay type: cell-based, human
[3] = test system: SMA-like mice (progeny of hSMN2 Smn+/- intercross); experiment: In utero treatment of SMA-like mice (pregnant mice from hSMN2 Smn+/- intercross); assay type: in vivo, mouse
Description: To evaluate the therapeutic effect of sodium butyrate for severely affected SMA mice, the test compound was administered to pregnant mice from an hSMN2 Smn^+/− intercross. The number mice born with SMA-like phenotypes were counted and classified according to type. In one case, 4-8 μg/day sodium butyrate was administered to pregnant mice from a hSMN2 Smn^+/− intercross ad libitum in their drinking water beginning from 15 day post-coitum until parturition (Table 1).

[4] = test system: exon 7-containing SMN protein; experiment: Western-blot analysis (H2 and H7 antibodies) of SMN protein in SMA patient lymphoid cell lines; assay type: cell-based, human; conditions: cytosolic and nuclear fractions, 4 hours stimulation, 0.5 ng/ml to 5 μg/ml
Description: Lymphoid cells were isolated from SMA patients with different degrees of severity. Whole blood was drawn from the patients, heparinized, then diluted 1:1 with PBS (phosphate buffered saline). The diluted sample was layered on a Ficoll-Hypaque gradient, and centrifuge at 2500 rpm for 30 minutes at room temperature. The buffy coat was collected from the centrifuged sample, washed twice with 5 ml PBS, collected, and resuspended in 5 ml RPMI medium, 0.5 ml Epstein-Barr virus (EBV stock), 50 μl PHA, and 50 μl of cyclosporine (0.2 mg/ml). The virus-treated sample was mixed well and transferred into a T-flask for incubation at 37° C. in a 5% CO2 incubator for 3 weeks.
Rabbits were immunized with synthetic peptides containing either human SMN amino acids 279-288 from exon 7 or amino acids 72-84 from exon 2. Specific antibodies (H7 and H2 batches) were purified from rabbit crude sera with an EAH-sepharose 4B column (Pharmacia) according to the manufacturer's instructions.
Protein samples, prepared from treated and untreated SMA lymphoid cells, were loaded on a 5% polyacrylamide stacking gel above a 12% separating gel, and the gel was run with a discontinuous buffer using Laemmli's method. […] The secondary antibody was detected with a 1.5% solution of 5-bromo-4-chloro-3-indoyl phosphate and 3% nitro blue tetrazolium in a developing buffer (100 mM NaCl, 5 mM MgCl2, 100 mM Tris.HCl, pH 9.5). […]

[5] = treated mothers, 4-8 μg/day from 15 day post-coitum until parturition (untreated 10%)
[6] = treated mothers, 4-8 μg/day from 15 day post-coitum until parturition, 294 total pups

CCCC(=O)[O-].[Na+] [sodium butyrate]
tail histopathology relative to untreated SMA-like mice ([1]; treated SMA-like mice): fewer atrophied muscle bundles, less group atrophy, and reduced subcutaneous edema
frequency of chronic necrosis originating at the tip of the tail ([1]; treated SMA-like mice (untreated 50%)): 2%
tail length on average ([1]; treated type 3 SMA-like mice (untreated about 1 cm, wild-type 6 cm)): about 5 cm
survival time longer than untreated mice, on average ([1]; type 2 SMA-like mice, drinking water 0.8 or 8 μg/ml, approx. 4-80 μg/day): 4 to 5 days
tail phenotype ([1]; type 3 SMA-like mice): close to wild-type
exon 7-containing SMN protein levels in tissues ([1]; western blot and immunohistochemistry, multiple tissues including spinal cord motor neurons): elevated
splicing of SMN2 transcripts ([2]; RT-PCR, treated vs untreated cells): changed to include exon 7
amount of exon 7-containing SMN mRNA ([2]; lymphoid cells cultured with 5 ng/ml to 50 μg/ml): increased
time of greatest increase of exon 7-containing SMN mRNA after addition of the drug ([2]; lymphoid cells, 5 ng/ml to 50 μg/ml): 4 h
level of full-length SMN mRNA transcript ([2]; relative to untreated control, lymphoid cells from all three types of SMA patients): increased levels of full-length SMN transcript; also recorded: increase
symptoms of progeny from treated mothers vs progeny from untreated mothers ([3]; higher dose, 40-80 μg/day): milder symptoms
percent of pups with Type 2 symptoms ([3]; treated mothers, 4-8 μg/day from 15 day post-coitum until parturition (untreated 5%)): 7%
percent of pups with Type 1 symptoms [3, 5]: 7%
percent of pups with Type 3 symptoms [3, 5]: 16%
number of pups with Type 2 symptoms [3, 6]: 22
number of pups with Type 3 symptoms [3, 6]: 48
number of pups with Type 1 symptoms ([3]; treated mothers, 4-8 μg/day in drinking water from 15 day post-coitum until parturition, 294 total pups): 21
amount of intact (exon 7-containing) SMN protein [4]: increase
